The values that follow come from patent publication US8242152B2, “Use of 4-[(4-thiazolyl)phenoxy]alkoxy-benzamidine derivatives for the prophylaxis and treatment of osteoporosis” (Dong Wha Pharmaceutical Co., Ltd., priority 2001, dated 2012).

The subject of test [1] is Primary osteoblastic cells. Briefly: ALP activity in primary osteoblastic cells (Example 5). It counts as cell-based, ICR mice. As to conditions: 3 days. How it is done: Primary osteoblastic cells isolated from the calvariae of newborn ICR mice were grown to confluence in α-MEM containing 10% FBS. These cells were plated at a density of 1×10^5/ml in tissue culture dishes. After 24 h, cells were changed with a differentiation medium containing ascorbic acid (50 ug/ml) and β-glycerophosphate (10 mM) with or without the compounds and further cultured for 3 days. Cells were washed twice with PBS and harvested. For the measurement of ALP activity and total protein content, cells were extracted into 0.1% Triton X-100 in PBS containing 1 mM MgCl2 and centrifuged at 1.000×g for 5 minutes. Enzyme activity was determined in supernatants by colorimetric procedure using p-nitrophenyl phosphate (PNP) as a substrate at a wavelength of 405 nm and the protein content was determined by a Bio-Rad protein assay kit. The ALP unit was expressed as nmol PNP/ug protein/min.

Test [2] has as its system osteoclast differentiation. Briefly: Osteoclast differentiation, co-culture, TRAP(+)MNCs (Example 5). It counts as cell-based, mice. As to conditions: for inhibition at 0.01 µM / inhibition at 0.1 µM / inhibition at 1 µM: Mus musculus, Osteoclast, 144 h, day 6, read-out: % inhibitory action. How it is done:
To investigate the effect of compounds on osteoclast differentiation, co-culture between bone marrow cells (2.5×10^5 cells/cm^2) and calvaria-derived osteoblastic cells (4×10^4 cells/cm^2) was conducted in the presence of 1.25(OH)2D3(10^−8 M) and dexamethasone (10^−7 M) with α-MEM containing 10% FBS (referred as “osteoclastic medium”). Bone marrow cells were isolated from the femora of 6-week-old ddY mice and primary osteoblastic cells were isolated from the calvariae of newborn ICR mice by sequential digestion with 0.2% collagenase. The medium was changed every two days with fresh osteoclastic medium. An index of osteoclast formation was determined by counting TRAP-positive multinucleated osteoclasts (TRAP(+)MNCs). On day 6, the cells were fixed with 10% formaldehyde and stained for TRAP. The number of TRAP(+) MNCs containing more than 6-7 nuclei was counted under a microscope (ZEISS Axiovert 25, Switzerland). The results are shown as the relative inhibitory activity (% inhibition) compared to the control group.

The test system of test [3] is osteoclast activity (resorption pits). Briefly: Bone resorption pit formation assay on dentine slice (Example 5). Type of test: cell-based, mice. As to conditions: for inhibition at 0.01 µM / inhibition at 0.1 µM / inhibition at 1 µM: Mus musculus, Osteoclast, dentine slice, 24 h, read-out: Inhibitory activity (%). How it is done: Method for evaluating the effects of the compounds on osteoclast activity: Multinucleated osteoclasts were developed on collagen gel plates by co-culture system as described. On day 6-8 of the co-culture, multinucleated OCLs were detached from plates by 0.2% collagenase treatment (“crude OCLs”). Crude OCLs suspended in α-MEM containing 10% FBS were placed on a dentine slice (4 mm diameter) in a 96-well culture plate. […] At the end of the incubation, cells were removed by 1 M NH4OH treatment and resorption pits formed (in the slices stained with Mayer's hematoxylin). Resorption pits were enumerated with an image analyzer and compared to the control group.

Test [4] concerns osteoclast fusion. Briefly: Osteoclast fusion assay with purified prefusion osteoclasts (Example 5). It counts as cell-based, mice. As to conditions: for inhibition at 0.08 µM / inhibition at 0.4 µM / inhibition at 2 µM / inhibition at 10 µM: read-out: Inhibitory action (%). How it is done:
The effect of the compounds on the fusion of osteoclasts was examined using purified prefusion osteoclasts (pOC, mononuclear and binuclear osteoclasts). Co-cultures of bone marrow cells (2×10^7 cells/dish) and newborn mice calvariae (1×10^6 cells/dish) were maintained in 100-mm-diameter dishes for 4 days with osteoclast differontiarion factor. Cultures were washed twice with PBS and treated with 0.1% collagenase/dispase at 37° C. for 20 minutes. Released cells, mostly osteoblasts, were removed with a pipet and the plates were washed three times with PBS. The remaining cells were incubated with 30 uM echistatin in α-MEM containing 1% BSA for 20 min at 37° C. These cells were collected, pelleted, and washed once with α-MEM containing 10% FBS. The cells released by this treatment were the subject of the fusion assay. More than 90% of the cells in the pOCs preparation used in the present study were positive for TRAP.
pOCs (15,000 cells/well) were plated on 96 well culture plates with or without various compounds. After culture for 18 hours, the cells were fixed and stained for TRAP.

For test [5], the system named is osteoclast fusion. Briefly: Fusion assay of prefusion osteoclasts (Example 2). It counts as cell-based, mice. Particulars: Mus musculus, Osteoclast, 24 hrs; for inhibition at 0.08 µM / inhibition at 0.4 µM / inhibition at 2 µM / inhibition at 10 µM: read-out: Inhibitory action (%). From the text:
This assay is designed to evaluate the influences of each test substance in terms of osteoclast fusion during the differentiation process in which immature prefusion osteoclasts (pOC; osteoclast structure with one more nuclei) were transformed into mature multinucleated osteoclast (OCL) via cell to cell fusion (Gregg Wesolowski et al. Experimental Cell Research 219,679-686, 1995).
The prefusion osteoclast can be obtained via co-culture of both bone marrow cells and osteoblast, as prepared from Example 1. The mixture of both osteoblast (about 5×10^5 cells/plate) and bone marrow cells (about 1×10^7 cells/plate) were co-cultured in a 100 mm culture dish. Some differentiation factors, such as dexamethasone (10^−6M) and vitamin D3 (10^−9M), were added to the medium from the first day of culture. The medium was changed with a fresh medium containing differentiation factors every 2 days.
Since a great number of the prefusion osteoclasts having one or more nuclei in fusion process were formed during 4-day co-culture, the cells were separated and co-cultivation after 4 days. The medium was removed from the cells and with the addition of 0.2% collagenase solution (4 mL), the cells were incubated at 37° C. for 20 mins to separate the attachment cells. Since the majority of separated cells were osteoblasts, all osteoblasts were washed with PBS solution two or three times for their complete removal.
After the remaining prefusion osteoclasts were separated via reaction for 20 mins with the addition of echistatin containing 10% BSA, the cells were harvested by centrifuge.
The test substances diluted at each concentration were diluted at the desired concentration in α-MEM medium (addition of 10% FBS) to load them into a 96-well microplate in a dose of 100 uL per well. The osteoclastic monocytes, so separated from the preceding No. 1, were plated on a 96-well microplate in a dose of 5×10^3 cell/100 uL per well and cultured at 37° C. for 24 hrs, thus successfully resulting in the osteoclast fusion. In the case of specimen-free and positive controls, experiments were performed in the same manner as above.
The medium was removed from the cells and then the cells were washed once with PBS and fixed to a PBS solution containing 10% formalin for about 5 mins. The cells were again fixed to both ethanol and acetone (1/1) in a mixing solution for about 5 mins and dried off. The cells were further treated by TRAP staining solution for 15 mins and washed with water to observe the cells under the microscope. The TRAP-positive osteoclast counts, which were differentiated from monocyte to multinucleated cells (osteoclast having more than 10 nuclei) via fusion process, were measured.

Another test deals with LTB4 receptor (Homo sapiens, UniProt Q15722). Further details: endogenous in cells; host or cells: human neutrophils (PMN) purified from fresh blood. Particulars: cited from earlier work.
LTB4 receptor, sequence (Q15722 whole entry): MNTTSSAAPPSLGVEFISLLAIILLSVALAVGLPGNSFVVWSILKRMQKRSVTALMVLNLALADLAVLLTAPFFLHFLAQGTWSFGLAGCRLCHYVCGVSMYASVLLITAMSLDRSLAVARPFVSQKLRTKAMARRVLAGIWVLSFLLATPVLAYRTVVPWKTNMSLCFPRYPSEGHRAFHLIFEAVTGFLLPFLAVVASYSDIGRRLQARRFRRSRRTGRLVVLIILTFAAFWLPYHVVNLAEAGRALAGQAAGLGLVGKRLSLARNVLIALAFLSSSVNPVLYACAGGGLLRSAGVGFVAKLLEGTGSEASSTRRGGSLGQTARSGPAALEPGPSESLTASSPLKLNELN
Setting [6] is: Mus musculus, Osteoclast, 18 hours.

Like-named read-outs stand apart in the source and are kept apart here.

Take `Cc1nc(-c2ccc(OCCCCOc3ccc(C(=N)N)cc3)cc2)c(C(C)C)s1` [DW1351, 4-{4-[4-(5-isopropyl-2-methyl-1,3-thiazol-4-yl)phenoxy]butoxy}-benzamidine]: in test [1] (0.01 uM), the “ALP activity (% of control)” value is 122.5 % of control and the “ALP activity (Unit)” value is listed as 20.8 nmol PNP/ug protein/min. In test [1] (0.1 uM), the “ALP activity (% of control)” value was 121.2 % of control and the “ALP activity (Unit)” value is 21.0 nmol PNP/ug protein/min. Further, in test [2], the inhibition at 0.01 µM is 23%, the inhibition at 0.1 µM came out at 30.6% and the inhibition at 1 µM worked out at 61.5%. In test [3], the inhibition at 0.01 µM was 2.1%, the inhibition at 0.1 µM was determined as 26.7% and the inhibition at 1 µM was determined as 51.8%. Moreover, in the test with osteoclast fusion [4] (setting [6]), the inhibition at 0.08 µM worked out at 0%, the inhibition at 0.4 µM came to 0%, the inhibition at 2 µM is 38% and the inhibition at 10 µM amounted to 74%. In the test on osteoclast fusion [5], the inhibition at 0.08 µM is 0%, the inhibition at 0.4 µM stood at 0%, the inhibition at 2 µM was 38% and the inhibition at 10 µM was determined as 74%. In addition, the “Inhibition (%) of LTB4 receptor binding” value on LTB4 receptor (100 nM) was 89%. Besides, the “Inhibition (%) of LTB4 receptor binding” value on LTB4 receptor (1 uM) is 100%.
By IC50 is commonly meant the concentration that inhibits the measured activity by half. A high value points to lower potency. For the molecule `Cc1nc(-c2ccc(OCCCCCOc3ccc(C(=N)N)cc3)cc2)c(C(C)C)s1` [DW1352, 4-{5-[4-(5-isopropyl-2-methyl-1,3-thiazol-4-yl)phenoxy]pentoxy}-benzamidine], in test [1] (0.01 uM), the “ALP activity (% of control)” value was 113.0 % of control and the “ALP activity (Unit)” value is on record as 19.2 nmol PNP/ug protein/min. Also, in test [1] (0.1 uM), the “ALP activity (% of control)” value was 111.7 % of control and the “ALP activity (Unit)” value stood at 19.1 nmol PNP/ug protein/min. In addition, in test [2], the inhibition at 0.01 µM turned out to be 27.1%, the inhibition at 0.1 µM is 41.3% and the inhibition at 1 µM is 80.9%. In test [2] (versus DW1351, Table 8), the “times stronger inhibition of osteoclast differentiation than DW1351” value was “about 1.35 times”. Besides, in test [3], the inhibition at 0.01 µM was 21.7%, the inhibition at 0.1 µM was determined as 36% and the inhibition at 1 µM came to 64.1%. The “times more inhibition of osteoclast activity than DW1351” value in test [3] (versus DW1351, Table 10) is “about 1.35 times”. Also, in the test on osteoclast fusion [4] (setting [6]), the inhibition at 0.08 µM was 5.13%, the inhibition at 0.4 µM amounted to 24.7%, the inhibition at 2 µM came to 87.2% and the inhibition at 10 µM was 99%. The molecule also yielded an IC50 in the test with osteoclast fusion [4] (setting [6]) of 740 nM. Besides, the “times more inhibition of osteoclast fusion than DW1351” value with osteoclast fusion [4] (versus DW1351) came to 2.3 times. Also, in the test on osteoclast fusion [5], the inhibition at 0.08 µM was determined as 5.13%, the inhibition at 0.4 µM is 24.7%, the inhibition at 2 µM stood at 87.2% and the inhibition at 10 µM is 99%. Further, half-maximal inhibition with osteoclast fusion [5] (IC50) was put at 740 nM. Besides, the “Inhibition (%) of LTB4 receptor binding” value on LTB4 receptor (100 nM) is 88%. On LTB4 receptor (1 uM), the “Inhibition (%) of LTB4 receptor binding” value is given as 100%.
As for `COc1cc(C(=O)N(C(C)C)C(C)C)ccc1OCCCCOc1ccc2c(N)noc2c1` [HS1141, N,N-diisopropyl-4-[4-(3-aminobenzo[d]isooxazole-6-yloxy)butoxy]-3-methoxybenzamide], in test [1] (0.01 uM), the “ALP activity (% of control)” value was 117.3 % of control and the “ALP activity (Unit)” value worked out at 19.9 nmol PNP/ug protein/min. Besides, in test [1] (0.1 uM), the “ALP activity (% of control)” value is on record as 120.9 % of control and the “ALP activity (Unit)” value was determined as 21.0 nmol PNP/ug protein/min. In test [2], the inhibition at 0.01 µM worked out at 11.4%, the inhibition at 0.1 µM amounted to 36.4% and the inhibition at 1 µM turned out to be 72.9%. Also, in test [3], the inhibition at 0.01 µM was determined as 8.2%, the inhibition at 0.1 µM is 22.7% and the inhibition at 1 µM was 52.7%. Moreover, in the test on osteoclast fusion [4] (setting [6]), the inhibition at 0.08 µM turned out to be 2.1%, the inhibition at 0.4 µM was 12.3%, the inhibition at 2 µM came out at 15.7% and the inhibition at 10 µM was determined as 36.3%. In the test with osteoclast fusion [5], the inhibition at 0.08 µM worked out at 2.1%, the inhibition at 0.4 µM was determined as 12.3%, the inhibition at 2 µM is 15.7% and the inhibition at 10 µM came out at 36.3%. Moreover, the “Inhibition (%) of LTB4 receptor binding” value on LTB4 receptor (1 uM) is on record as 100%.
